Publication PMC3382171 (PLoS ONE, 2012)

Assays:
Test in all cases: biochemical
Conditions in all cases: read-out: Upstate KSS % inhibition at 1uM
[1] = biological target: T1, Snk (Homo sapiens, UniProt Q9NYY3)
T1 construct: gene PLK2
Procedure: (§1) In these selectivity assays the concentration of ATP was set to the Km value of ATP for each kinase tested to allow for a relative potency comparison between the various kinases. The compounds were tested at 1 µM final concentration. […] (A) Kinase selectivity screen (KSS) performed at Upstate Biotechnology. […] (B) KSS performed at University of Dundee (Division of Signal Transduction Therapy). […] (PDF) Click here for additional data file.

[2] = biological target: T2, MRCKalpha (Homo sapiens, UniProt Q5VT25)
T2 construct: gene CDC42BPA
Procedure: as §1

[3] = biological target: T3, PKCbeta (Homo sapiens, UniProt P05771)
T3 construct: gene PRKCB
Procedure: as §1

[4] = biological target: AXL (Homo sapiens, UniProt P30530)
Procedure: as §1

[5] = biological target: T4, MKK6 (Homo sapiens, UniProt P52564)
T4 construct: gene MAP2K6
Procedure: as §1

[6] = biological target: Fes (Homo sapiens, UniProt P07332)
Procedure: as §1

[7] = biological target: T5, PKCiota (Homo sapiens, UniProt P41743)
T5 construct: gene PRKCI
Procedure: as §1

[8] = biological target: LIMK1 (Homo sapiens, UniProt P53667)
Procedure: as §1

[9] = biological target: JAK2 (Homo sapiens, UniProt O60674)
Procedure: as §1

[10] = biological target: EGFR (Homo sapiens, UniProt P00533)
Procedure: as §1

[11] = biological target: T6, DYRK2 (Homo sapiens, UniProt Q92630)
T6 sequence (Q92630 1-601): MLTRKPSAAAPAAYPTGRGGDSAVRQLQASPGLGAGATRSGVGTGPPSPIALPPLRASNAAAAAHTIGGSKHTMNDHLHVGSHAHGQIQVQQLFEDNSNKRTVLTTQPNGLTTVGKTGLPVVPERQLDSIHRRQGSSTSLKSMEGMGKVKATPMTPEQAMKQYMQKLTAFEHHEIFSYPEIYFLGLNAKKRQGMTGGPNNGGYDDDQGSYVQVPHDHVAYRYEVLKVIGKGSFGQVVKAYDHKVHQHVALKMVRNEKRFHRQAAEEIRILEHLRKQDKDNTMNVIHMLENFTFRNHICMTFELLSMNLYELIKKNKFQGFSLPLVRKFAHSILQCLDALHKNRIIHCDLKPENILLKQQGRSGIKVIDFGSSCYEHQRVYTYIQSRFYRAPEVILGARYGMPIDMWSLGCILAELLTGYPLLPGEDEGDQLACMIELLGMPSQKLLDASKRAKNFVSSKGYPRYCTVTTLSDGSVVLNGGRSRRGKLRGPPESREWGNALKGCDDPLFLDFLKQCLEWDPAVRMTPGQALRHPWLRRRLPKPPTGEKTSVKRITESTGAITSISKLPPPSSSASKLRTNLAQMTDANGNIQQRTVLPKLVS
Procedure: as §1

[12] = biological target: IRAK4 (Homo sapiens, UniProt Q9NWZ3)
Procedure: as §1

[13] = biological target: CSK (Homo sapiens, UniProt P41240)
Procedure: as §1

[14] = biological target: Lyn (Homo sapiens, UniProt P07948)
Procedure: as §1

[15] = biological target: HIPK2 (Homo sapiens, UniProt Q9H2X6)
Procedure: as §1

[16] = biological target: CDK1/cyclinB (Homo sapiens, UniProt P06493)
Procedure: as §1

[17] = biological target: T7, PAR-1Balpha (Homo sapiens, UniProt Q7KZI7)
T7 construct: gene MARK2
Procedure: as §1

[18] = biological target: MELK (Homo sapiens, UniProt Q14680)
Procedure: as §1

[19] = biological target: KDR (Homo sapiens, UniProt P35968)
Procedure: as §1

[20] = biological target: T8, PKG1alpha (Homo sapiens, UniProt Q13976)
T8 construct: gene PRKG1; isoform alpha
Procedure: as §1

[21] = biological target: T9, Tie2 (Homo sapiens, UniProt Q02763)
T9 construct: gene TEK
Procedure: as §1

[22] = biological target: T10, SAPK3 (Homo sapiens, UniProt P53778)
T10 construct: gene MAPK12
Procedure: as §1

[23] = biological target: T11, MKK7beta (Homo sapiens, UniProt O14733)
T11 construct: gene MAP2K7; isoform beta
Procedure: as §1

[24] = biological target: T12, SAPK2b (Homo sapiens, UniProt Q15759)
T12 construct: gene MAPK11
Procedure: as §1

[25] = biological target: T13, PKBbeta (Homo sapiens, UniProt P31751)
T13 construct: gene AKT2
Procedure: as §1

[26] = biological target: T14, MEK1 (Homo sapiens, UniProt Q02750)
T14 construct: gene MAP2K1
Procedure: as §1

[27] = biological target: T15, MNK2 (Homo sapiens, UniProt Q9HBH9)
T15 construct: gene MKNK2
Procedure: as §1

[28] = biological target: T16, Ros (Homo sapiens, UniProt P08922)
T16 construct: gene ROS1
Procedure: as §1

T4 sequence (P52564 whole entry): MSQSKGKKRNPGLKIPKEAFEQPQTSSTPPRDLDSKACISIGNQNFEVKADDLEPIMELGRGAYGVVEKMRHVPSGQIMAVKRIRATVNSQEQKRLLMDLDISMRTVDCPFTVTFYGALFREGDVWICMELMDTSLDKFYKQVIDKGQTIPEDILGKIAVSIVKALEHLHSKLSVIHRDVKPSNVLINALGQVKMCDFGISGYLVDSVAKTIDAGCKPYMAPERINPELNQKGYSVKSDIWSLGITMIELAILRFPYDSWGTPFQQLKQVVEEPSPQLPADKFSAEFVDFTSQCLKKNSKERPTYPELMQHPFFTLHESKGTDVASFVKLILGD
T5 sequence (P41743 whole entry): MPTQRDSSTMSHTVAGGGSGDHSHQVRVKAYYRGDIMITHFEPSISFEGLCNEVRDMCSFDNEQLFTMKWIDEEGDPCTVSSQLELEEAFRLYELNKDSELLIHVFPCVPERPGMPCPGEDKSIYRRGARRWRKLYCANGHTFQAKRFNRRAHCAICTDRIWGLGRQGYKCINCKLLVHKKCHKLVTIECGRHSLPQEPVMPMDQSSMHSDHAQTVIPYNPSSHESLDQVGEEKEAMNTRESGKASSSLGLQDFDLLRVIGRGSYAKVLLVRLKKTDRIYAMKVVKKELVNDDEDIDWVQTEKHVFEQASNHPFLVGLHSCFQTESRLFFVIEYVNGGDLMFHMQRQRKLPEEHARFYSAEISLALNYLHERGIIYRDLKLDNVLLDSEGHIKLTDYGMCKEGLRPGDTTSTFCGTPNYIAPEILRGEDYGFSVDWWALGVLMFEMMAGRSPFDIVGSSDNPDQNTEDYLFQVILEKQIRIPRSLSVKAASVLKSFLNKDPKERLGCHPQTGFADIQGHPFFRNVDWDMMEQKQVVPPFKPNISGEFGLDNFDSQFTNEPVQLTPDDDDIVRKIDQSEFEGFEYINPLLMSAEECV
Chain of IRAK4 (Q9NWZ3 whole entry): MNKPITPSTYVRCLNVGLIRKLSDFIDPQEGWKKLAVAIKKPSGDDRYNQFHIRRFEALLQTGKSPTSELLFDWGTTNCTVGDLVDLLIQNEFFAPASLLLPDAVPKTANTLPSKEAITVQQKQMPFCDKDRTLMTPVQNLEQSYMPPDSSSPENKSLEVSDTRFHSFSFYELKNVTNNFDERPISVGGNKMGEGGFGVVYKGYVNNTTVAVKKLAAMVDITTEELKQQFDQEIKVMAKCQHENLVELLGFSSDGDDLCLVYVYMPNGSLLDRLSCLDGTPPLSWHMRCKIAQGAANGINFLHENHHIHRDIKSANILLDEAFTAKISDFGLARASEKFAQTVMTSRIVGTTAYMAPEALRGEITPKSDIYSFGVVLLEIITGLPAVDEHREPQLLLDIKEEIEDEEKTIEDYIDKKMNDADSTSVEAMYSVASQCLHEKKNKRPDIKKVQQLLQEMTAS
T13 sequence (P31751 whole entry): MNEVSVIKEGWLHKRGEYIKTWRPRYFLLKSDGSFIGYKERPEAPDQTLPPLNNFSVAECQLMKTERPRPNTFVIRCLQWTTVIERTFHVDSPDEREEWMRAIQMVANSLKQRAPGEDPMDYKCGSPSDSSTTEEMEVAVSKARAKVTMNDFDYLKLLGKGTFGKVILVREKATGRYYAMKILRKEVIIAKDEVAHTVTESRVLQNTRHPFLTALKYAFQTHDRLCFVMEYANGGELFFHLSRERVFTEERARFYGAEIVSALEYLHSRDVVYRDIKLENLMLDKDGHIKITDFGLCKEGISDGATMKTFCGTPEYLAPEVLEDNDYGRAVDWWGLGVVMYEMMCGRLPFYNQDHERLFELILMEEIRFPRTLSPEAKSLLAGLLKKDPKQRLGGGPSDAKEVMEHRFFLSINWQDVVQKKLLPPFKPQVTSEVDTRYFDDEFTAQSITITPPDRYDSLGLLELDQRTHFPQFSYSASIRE
Chain of Lyn (P07948 whole entry): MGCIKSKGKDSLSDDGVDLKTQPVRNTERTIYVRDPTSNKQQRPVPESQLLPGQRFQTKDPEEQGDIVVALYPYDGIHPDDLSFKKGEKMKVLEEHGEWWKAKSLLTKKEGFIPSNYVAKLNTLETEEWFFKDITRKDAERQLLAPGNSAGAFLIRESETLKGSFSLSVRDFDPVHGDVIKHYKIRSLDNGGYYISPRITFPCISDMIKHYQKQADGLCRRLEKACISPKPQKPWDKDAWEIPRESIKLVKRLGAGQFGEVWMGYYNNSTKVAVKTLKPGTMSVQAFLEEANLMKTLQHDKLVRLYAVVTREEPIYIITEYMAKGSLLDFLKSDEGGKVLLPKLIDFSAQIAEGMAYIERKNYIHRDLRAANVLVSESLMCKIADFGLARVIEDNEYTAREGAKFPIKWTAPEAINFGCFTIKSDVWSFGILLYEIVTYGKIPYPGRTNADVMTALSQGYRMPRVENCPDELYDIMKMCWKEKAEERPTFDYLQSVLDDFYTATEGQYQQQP
Chain of KDR (P35968 whole entry): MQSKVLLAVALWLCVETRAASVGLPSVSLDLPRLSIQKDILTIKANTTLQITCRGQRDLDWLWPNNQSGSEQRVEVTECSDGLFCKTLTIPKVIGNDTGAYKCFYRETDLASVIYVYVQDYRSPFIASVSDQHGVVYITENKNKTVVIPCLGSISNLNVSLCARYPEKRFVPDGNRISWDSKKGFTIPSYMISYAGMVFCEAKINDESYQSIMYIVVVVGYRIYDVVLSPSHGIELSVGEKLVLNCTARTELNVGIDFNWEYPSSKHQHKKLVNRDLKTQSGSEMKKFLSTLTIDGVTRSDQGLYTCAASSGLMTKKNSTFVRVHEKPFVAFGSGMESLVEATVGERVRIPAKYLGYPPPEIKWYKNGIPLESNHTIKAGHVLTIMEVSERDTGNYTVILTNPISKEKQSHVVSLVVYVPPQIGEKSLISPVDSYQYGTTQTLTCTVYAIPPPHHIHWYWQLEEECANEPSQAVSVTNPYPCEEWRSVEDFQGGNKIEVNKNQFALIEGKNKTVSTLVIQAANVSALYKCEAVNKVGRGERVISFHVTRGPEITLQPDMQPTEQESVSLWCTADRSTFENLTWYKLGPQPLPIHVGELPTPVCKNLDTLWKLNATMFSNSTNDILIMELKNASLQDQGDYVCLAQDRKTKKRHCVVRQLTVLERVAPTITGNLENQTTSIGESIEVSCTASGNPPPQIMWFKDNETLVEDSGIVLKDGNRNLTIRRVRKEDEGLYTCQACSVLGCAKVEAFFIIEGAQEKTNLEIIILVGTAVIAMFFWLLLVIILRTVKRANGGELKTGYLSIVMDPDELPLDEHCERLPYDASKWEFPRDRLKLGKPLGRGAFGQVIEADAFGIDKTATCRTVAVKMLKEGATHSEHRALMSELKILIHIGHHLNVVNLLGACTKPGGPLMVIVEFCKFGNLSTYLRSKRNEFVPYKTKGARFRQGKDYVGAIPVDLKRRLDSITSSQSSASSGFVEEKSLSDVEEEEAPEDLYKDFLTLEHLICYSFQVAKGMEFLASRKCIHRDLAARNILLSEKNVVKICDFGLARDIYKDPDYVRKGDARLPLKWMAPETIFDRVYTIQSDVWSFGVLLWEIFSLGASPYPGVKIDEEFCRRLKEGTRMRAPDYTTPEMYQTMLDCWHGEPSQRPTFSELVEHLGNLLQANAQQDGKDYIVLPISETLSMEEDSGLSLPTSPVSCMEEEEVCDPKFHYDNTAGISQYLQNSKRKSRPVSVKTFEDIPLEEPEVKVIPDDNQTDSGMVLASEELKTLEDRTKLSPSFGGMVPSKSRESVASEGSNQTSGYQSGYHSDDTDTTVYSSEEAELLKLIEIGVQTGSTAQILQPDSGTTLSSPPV
T12 sequence (Q15759 whole entry): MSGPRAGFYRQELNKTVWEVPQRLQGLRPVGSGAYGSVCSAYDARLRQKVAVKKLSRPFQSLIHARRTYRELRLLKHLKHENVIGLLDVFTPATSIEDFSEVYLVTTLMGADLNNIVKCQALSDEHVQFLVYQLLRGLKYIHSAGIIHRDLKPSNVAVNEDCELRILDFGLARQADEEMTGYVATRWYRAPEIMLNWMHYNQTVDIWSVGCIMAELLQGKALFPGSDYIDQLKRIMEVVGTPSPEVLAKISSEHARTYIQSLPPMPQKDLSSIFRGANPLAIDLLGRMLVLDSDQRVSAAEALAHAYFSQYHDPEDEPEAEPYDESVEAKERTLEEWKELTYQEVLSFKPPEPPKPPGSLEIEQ
T8 sequence (Q13976 whole entry, canonical isoform): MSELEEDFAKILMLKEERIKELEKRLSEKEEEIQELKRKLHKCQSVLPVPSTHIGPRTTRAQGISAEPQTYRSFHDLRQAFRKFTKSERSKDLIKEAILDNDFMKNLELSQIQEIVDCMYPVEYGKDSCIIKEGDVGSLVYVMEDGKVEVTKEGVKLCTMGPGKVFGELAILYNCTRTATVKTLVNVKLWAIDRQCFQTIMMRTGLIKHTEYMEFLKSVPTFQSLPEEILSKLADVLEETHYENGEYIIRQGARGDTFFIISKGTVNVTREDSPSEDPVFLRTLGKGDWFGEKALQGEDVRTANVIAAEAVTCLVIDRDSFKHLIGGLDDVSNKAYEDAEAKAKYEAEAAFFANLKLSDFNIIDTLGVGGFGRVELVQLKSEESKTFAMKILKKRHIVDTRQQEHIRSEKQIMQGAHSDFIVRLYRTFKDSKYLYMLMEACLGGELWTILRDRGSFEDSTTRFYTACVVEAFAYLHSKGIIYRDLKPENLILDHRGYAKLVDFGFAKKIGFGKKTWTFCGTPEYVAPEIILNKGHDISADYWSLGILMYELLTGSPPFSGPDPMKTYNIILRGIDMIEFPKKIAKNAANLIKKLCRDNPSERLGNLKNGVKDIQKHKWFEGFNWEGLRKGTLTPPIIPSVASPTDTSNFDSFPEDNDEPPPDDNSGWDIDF

inhibition at 1 µM [1]: -11%
inhibition at 1 µM [2]: 5%
inhibition at 1 µM [3]: 0%
inhibition at 1 µM [4]: -11%
inhibition at 1 µM [5]: -13%
inhibition at 1 µM [6]: -61%
inhibition at 1 µM [7]: 0%
inhibition at 1 µM [8]: -7%
inhibition at 1 µM [9]: -6%
inhibition at 1 µM [10]: 0%
inhibition at 1 µM [11]: -1%
inhibition at 1 µM [12]: 11%
inhibition at 1 µM [13]: -23%
inhibition at 1 µM [14]: 2%
inhibition at 1 µM [15]: 8%
inhibition at 1 µM [16]: -7%
inhibition at 1 µM [17]: 17%
inhibition at 1 µM [18]: 2%
inhibition at 1 µM [19]: -9%
inhibition at 1 µM [20]: 3%
inhibition at 1 µM [21]: -32%
inhibition at 1 µM [22]: 10%
inhibition at 1 µM [23]: -2%
inhibition at 1 µM [24]: 1%
inhibition at 1 µM [25]: -6%
inhibition at 1 µM [26]: -11%
inhibition at 1 µM [27]: 0%
inhibition at 1 µM [28]: 0%
Compound: OCCn1cc(-c2cnc3nnn(Cc4ccc5ncccc5c4)c3n2)cn1 [METi, PF-04217903]
